From patent US9539239B1, “Compositions and methods for treatment of neurodegenerative disease” (priority 2010, dated 2017)

B1: FLT3 ligand: RTK ligand; ligand of the receptor tyrosine kinase FLT3 (protein, UniProt P49771 27-235, looked up)
Fms-related tyrosine kinase 3 …: TQDCSFQHSPISSDFAVKIRELSDYLLQDYPVTVASNLQDEELCGGLWRLVLAQRWMERLKTVAGSKMQGLLERVNTEIHFVTKCAFQPPPSCLRFVQTNISRLLQETSEQLVALKPWITRQNFSRCLELQCQPDSSTLPPPWSPRPLEATAPTAPQPPLLLLLLLPVGLLLLAAAWCLHWQRTRRRTPRPGEQVPPVPSPQDLLLVEH

Test system: retinal ganglion cells (RGCs)
Experiment: RGC neurite growth in primary retinal ganglion cell culture (high-content screening)
Type: cell-based, mouse and rat
Conditions: potency relative to sunitinib; baseline culture with 2.5 μM forskolin
Protocol: (§1) In this Example, certain compounds were administered to retinal ganglion cells (RGCs) in cell culture to determine the effects of the compounds on neuronal count and neurite growth.
(§2) We established a robust high-content screening system combining the immunopanning- or other immunobead-based purification of primary mouse and rat RGCs and automated fluorescence-based imaging analysis (see, e.g., U.S. Patent Publication No. 2007/0185069, incorporated herein by reference). To enhance the assay sensitivity, the culture condition is defined to support a baseline level of RGC viability (20˜60% surviving RGCs after three days in culture) and neurite growth by 2.5 μM forskolin.
In addition, certain tested compounds stimulated RGC neurite growth.
In the case of `Cc1c([S+](C)[O-])ccc2c1/C(=C/c1cc3c([nH]1)CCCC3)C(=O)N2` (centres unmarked) [Example 5], the “Neurite Promotion” value is reported as “** (approximately 40-80% as potent as sunitinib)”.
In the case of `CCN(CC)CCNC(=O)c1c(C)[nH]c(/C=C2\C(=O)Nc3ccc([S+](C)[O-])cc32)c1C` (centres unmarked) [Example 17], the “Neurite Promotion” value is reported as “*** (at least approximately 80% as potent as sunitinib)”.
With `CCN(CC)CCNC(=O)c1c(C)[nH]c(/C=C2\C(=O)Nc3ccc([S+](C)[O-])cc32)c1C` (centres unmarked) [Example 18] the “Neurite Promotion” value was “*** (at least approximately 80% as potent as sunitinib)”.

Test system: retinal ganglion cells (RGCs)
Experiment: RGC survival in primary retinal ganglion cell culture (high-content screening)
Type: cell-based, mouse and rat
Conditions: potency relative to sunitinib; baseline culture with 2.5 μM forskolin
Protocol: as §1
as §2, with “forskolin. […]” for “forskolin.”
With `Cc1[nH]c(/C=C2\C(=O)Nc3ccc([S+](C)[O-])cc32)c(C)c1C(=O)N1CCOCC1` (centres unmarked) the “RGC Survival Activity” value was “** (approximately 40-80% as potent as sunitinib)”.
In the case of `Cc1[nH]c(/C=C2\C(=O)Nc3ccc([S+](C)[O-])cc32)c(C)c1C(=O)N1CCN(C)CC1` (centres unmarked), the “RGC Survival Activity” value is reported as “* (approximately 10-40% as potent as sunitinib)”.
For `C[S+]([O-])c1ccc2c(c1)/C(=C/c1cc3c([nH]1)CC(C)(C)CC3=O)C(=O)N2` (centres unmarked) [Example 2], the “RGC Survival Activity” value was “*** (at least approximately 80% as potent as sunitinib)”.
In the case of `C[S+]([O-])c1ccc2c(c1)/C(=C/c1cc3c([nH]1)CCCC3=O)C(=O)N2` (centres unmarked) [Example 3], the “RGC Survival Activity” value is reported as “*** (at least approximately 80% as potent as sunitinib)”.
In the case of `Cc1c([S+](C)[O-])ccc2c1/C(=C/c1cc3c([nH]1)CCCC3)C(=O)N2` (centres unmarked) [Example 5], the “RGC Survival Activity” value is reported as “* (approximately 10-40% as potent as sunitinib)”.
For `C[S+]([O-])c1ccc2c(c1)/C(=C/c1cc3c([nH]1)CCCC3)C(=O)N2` (centres unmarked) [Example 6], the “RGC Survival Activity” value was “*** (at least approximately 80% as potent as sunitinib)”.
With `CC[S+]([O-])c1ccc2c(c1)/C(=C/c1cc3c([nH]1)CCCC3)C(=O)N2` (centres unmarked) [Example 7] the “RGC Survival Activity” value was “*** (at least approximately 80% as potent as sunitinib)”.
In the case of `Cc1c(/C=C2\C(=O)Nc3ccc(C(=O)N(C)C)cc32)[nH]c2c1CC(C)(C)CC2` [Example 8], the “RGC Survival Activity” value is reported as “** (approximately 40-80% as potent as sunitinib)”.
In the case of `CON(C)C(=O)c1ccc2c(c1)/C(=C/c1[nH]c3c(c1C)C(=O)C(C)(C)CC3)C(=O)N2` [Example 9], the “RGC Survival Activity” value is reported as “*** (at least approximately 80% as potent as sunitinib)”.
With `CCN(C)C(=O)c1ccc2c(c1)/C(=C/c1[nH]c3c(c1C)C(=O)C(C)(C)CC3)C(=O)N2` [Example 10] the “RGC Survival Activity” value was “*** (at least approximately 80% as potent as sunitinib)”.
With `CCCCN(C)C(=O)c1ccc2c(c1)/C(=C/c1[nH]c3c(c1C)C(=O)C(C)(C)CC3)C(=O)N2` [Example 11] the “RGC Survival Activity” value was “** (approximately 40-80% as potent as sunitinib)”.
With `Cc1c(/C=C2\C(=O)Nc3ccc(C(=O)N4CCCCCC4)cc32)[nH]c2c1C(=O)C(C)(C)CC2` [Example 12] the “RGC Survival Activity” value was “** (approximately 40-80% as potent as sunitinib)”.
With `Cc1c(/C=C2\C(=O)Nc3ccc(C(=O)N4CCCC4)cc32)[nH]c2c1C(=O)C(C)(C)CC2` [Example 13] the “RGC Survival Activity” value was “*** (at least approximately 80% as potent as sunitinib)”.
With `CN(C)C(=O)c1ccc2c(c1)/C(=C/c1cc3c([nH]1)CCCC3=O)C(=O)N2` [Example 14] the “RGC Survival Activity” value was “*** (at least approximately 80% as potent as sunitinib)”.
In the case of `CN(C)C(=O)c1ccc2c(c1)/C(=C/c1cc3c([nH]1)CC(C)(C)CC3=O)C(=O)N2` [Example 15], the “RGC Survival Activity” value is reported as “** (approximately 40-80% as potent as sunitinib)”.
With `Cc1c(/C=C2\C(=O)Nc3ccc(C(=O)N(C)C)cc32)[nH]c2c1C(=O)C(C)(C)CC2` [Example 16] the “RGC Survival Activity” value was “*** (at least approximately 80% as potent as sunitinib)”.
With `CCN(CC)CCNC(=O)c1c(C)[nH]c(/C=C2\C(=O)Nc3ccc([S+](C)[O-])cc32)c1C` (centres unmarked) [Example 17] the “RGC Survival Activity” value was “*** (at least approximately 80% as potent as sunitinib)”.
With `CCN(CC)CCNC(=O)c1c(C)[nH]c(/C=C2\C(=O)Nc3ccc([S+](C)[O-])cc32)c1C` (centres unmarked) [Example 18] the “RGC Survival Activity” value was “*** (at least approximately 80% as potent as sunitinib)”.
For `CCN(CC)CCNC(=O)c1c(C)[nH]c(/C=C2\C(=O)Nc3ccc([S+]([O-])CC)cc32)c1C` (centres unmarked) [Example 19], the “RGC Survival Activity” value was “*** (at least approximately 80% as potent as sunitinib)”.
With `CCN(CC)CCNC(=O)c1c(C)[nH]c(/C=C2\C(=O)Nc3ccc(C(=O)N4CCCC4)cc32)c1C` [Example 23] the “RGC Survival Activity” value was “*** (at least approximately 80% as potent as sunitinib)”.
With `CCN(CC)CCNC(=O)c1c(C)[nH]c(/C=C2\C(=O)Nc3ccc(C(=O)N(C)OC)cc32)c1C` [Example 24] the “RGC Survival Activity” value was “*** (at least approximately 80% as potent as sunitinib)”.
With `Cc1[nH]c(/C=C2\C(=O)Nc3ccc(C(=O)N(C)C)cc32)c(C)c1C(=O)NCCN1CCCC1` [Example 25] the “RGC Survival Activity” value was “*** (at least approximately 80% as potent as sunitinib)”.
With `CCN(CC)CCNC(=O)c1c(C)[nH]c(/C=C2\C(=O)Nc3ccc(C(=O)N(C)C)cc32)c1C` [Example 26] the “RGC Survival Activity” value was “*** (at least approximately 80% as potent as sunitinib)”.

Test system: RGC
Experiment: Effect of FLT3 ligand on RGC survival
Type: cell-based
Conditions: 4 ng/ml (its EC50)
For B1, the “reduction of RGC survival” value was “does not do so”.

Same assay, conditions: 16 ng/ml, four times its EC50
For B1, the “reduction of RGC survival” value was 38.3%.

Test system: not given
Experiment: not given
Conditions: cited from earlier work
In the case of B1, the EC50 is listed as 4 ng/mL.
